Publication PMC10385579, “Design, Synthesis, and Biological Evaluation of Indole-2-carboxamides as Potential Multi-Target Antiproliferative Agents” (Pharmaceuticals, 2023)

How the values were obtained:
Format in all cases: cell-based, human
caspase-3 = experiment: Caspase 3 assay in A-549 cells; conditions: for Caspase-3 Conc: untreated control 66 pg/mL
Method: Caspases play a crucial function in the induction and completion of apoptosis. Caspase-3 is an essential caspase that cleaves different proteins in cells, resulting in apoptosis. […]
4.2.5. Caspase-3 activation assay
Allow all reagents to reach room temperature before use. Gently mix all liquid reagents prior to use. Determine the number of 8-well strips needed for the assay. Insert these in the frame(s) for current use. Add 100 μl of the Standard Diluent Buffer to the zero standard wells. Well(s) reserved for chromogen blank should be left empty. Add 100 μl of standards and controls or diluted samples to the appropriate microtiter wells. The sample dilution chosen should be optimized for each experimental system. Tap gently on side of plate to mix. Cover wells with plate cover and incubate for 2 hours at room temperature. Thoroughly aspirate or decant solution from wells and discard the liquid, Wash wells 4 times. Pipette 100 μl of Caspase-3 (Active) Detection Antibody solution into each well except the chromogen blank(s). Tap gently on the side of the plate to mix. Cover plate with plate cover and incubate for 1 hour at room temperature. Thoroughly aspirate or decant solution from wells and discard the liquid, Wash wells 4 times. Add 100 μl Anti-Rabbit IgG HRP Working Solution to each well except the chromogen blank(s). Prepare the working dilution as described in Preparing IgG HRP. Cover wells with the plate cover and incubate for 30 minutes at room temperature. Thoroughly aspirate or decant solution from wells and discard the liquid. Wash wells 4 times. Add 100 μl of Stabilized Chromoge n to each well. The liquid in the wells will begin to turn blue. Incubate for 30 minutes at room temperature and in the dark. The incubation time for chromogen substrate is often determined by the microtiter plate reader used. Many plate readers have the capacity to record a maximum optical density (O.D.) of 2.0. The O.D. values should be monitored, and the substrate reaction stopped before the O.D. of the positive wells exceeds the limits of the instrument. The O.D. values at 450 nm can only be read after the Stop Solution has been added to each well. If using a reader that records only to 2.0 O.D., stopping the assay after […]
Add 100 μl of Stop Solution to each well. Tap side of plate gently to mix. The solution in the wells should change from blue to yellow. Read the absorbance of each well at 450 nm having blanked the plate reader against a chromogen blank composed of 100 μl each of Stabilized Chromogen and Stop Solution. Read the plate within 2 hours after adding the Stop Solution. Use a curve fitting software to generate the standard curve. A four-parameter algorithm provides the best standard curve fit. Read the concentrations for unknown samples and controls from the standard curve. Multiply value(s) obtained for sample(s) by the appropriate dilution factor to correct for the dilution in step 3. Samples producing signals greater than that of the highest standard should be diluted in Standard Diluent Buffer and reanalyzed.

caspase-8 = experiment: Caspase-8 level assay in A-549 cells
Method: See Supplementary Materials.
4.2.6. Caspase-8 activation assay […]
caspase8, and lysed with Cell Extraction Buffer. This lysate was diluted in Standard Diluent Buffer over the range of the assay and measured for human active caspase-8 content. (Cells are Plated in a density of 1.2 – 1.8 × 10,000 cells/well in a vo lume of 100µl complete growth medium + 100 ul of the tested compound per well in a 96-well plate for 24 hours before the enzyme assay for Tubulin.). The absorbance of each microwell was read on a spectro-photometer at 450 nm. A standard curve is prepared from 7human Caspase-8 standard dilutions and human Caspase-8 concentration determined. […]

Bcl-2 = Bcl-2 level assay in A-549 cells
Method: Compounds Va and Vg were explored further for their impact on caspase-8, Bax, and Bacl-2 levels against a human epithelial cancer cell line (A-549) using doxorubicin as a reference. See Supplementary Materials. […]
4.2.8. Bcl-2inhibition assay
Mix all reagents thoroughly without foaming before use. Wash the microwells twice with approximately 300 μL Wash Buffer per well with thorough aspiration of microwell contents between washes. Take caution not to scratch the surface of the microwells. After the last wash, empty the wells and tap microwell strips on absorbent pad or paper towel to remove excess Wash Buffer. Use the microwell strips immediately after washing or place upside down on a wet absorbent paper for not longer than 15 minutes. […] Add 100 μL of Sample […]
Diluent in duplicate to all standard wells and to the blank wells. Prepare standard (1:2 dilution) in duplicate ranging from 32 ng/mL to 0.5 ng/mL. Add 100 μL of Sample Diluent, in duplicate, to the blank wells. Add 80 μL of Sample Diluent, in duplicate, to the sample wells. Add 20 μL of each Sample, in duplicate, to the designated wells. Add 50 μL of diluted biotin-conjugate to all wells, including the blank wells. Cover with a plate cover and incubate at room temperature, on a microplate shaker at 100 rpm if available, for 2 hours. Remove plate cover and empty the wells.
Wash microwell strips 3 times as described in step 2. Add 100 μL of diluted Streptavidin-HRP to all wells, including the blank wells. Cover with a plate cover and incubate at room temperature, on a microplate shaker at 100 rpm if available, for 1 hour. Remove plate cover and empty the wells.
Wash microwell strips 3 times as described in step 2. Proceed to the next step. Pipette 100 μl of mixed TMB Substrate Solution to all wells, including the blanks. Incubate the microwell strips at room temperature (18° to 25°C) for about 15 minutes, if available on a rotator set at 100 rpm.
Avoid direct exposure to intense light. The point, at which the substrate reaction is stopped, is often determined by the ELISA reader. Many ELISA readers record absorbance only up to 2.0
O.D. Therefore, the color development within individual microwells must be watched by the person running the assay and the substrate reaction stopped before positive wells are no longer properly detectable. Stop the enzyme reaction by quickly pipetting 100 μL of Stop Solution into each well, including the blank wells. It is important that the Stop Solution is spread quickly and uniformly throughout the microwells to completely inactivate the enzyme. Results must be read immediately after the Stop Solution is added or within one hour if the microwell strips are stored at 2 - 8°C in the dark. Read absorbance of each microwell on a spectrophotometer using 450 nm as the primary wavelength.

Bax = Bax level assay in A-549 cells
Method: caspase8, and lysed with Cell Extraction Buffer. This lysate was diluted in Standard Diluent Buffer over the range of the assay and measured for human active caspase-8 content. […]
4.2.7. Bax activation assay
Bring all reagents, except the human Bax-α Standard, to room temperature for at least 30 minutes prior to opening. The human Bax-α Standard solution should not be left at room temperature for more than 10 minutes. All standards, controls and samples should be run in duplicate. Refer to the Assay Layout Sheet to determine the number of wells to be used and put any remaining wells with the desiccant back into the pouch and seal the ziploc. Store unused wells at 4 °C. Pipet 100 μL of Assay Buffer into the S0 (0 pg/mL standard) wells. Pipet 100 μL of Standards #1 through #6 into the appropriate wells. Pipet 100 μL of the Samples into the appropriate wells. Tap the plate gently to mix the contents. Seal the plate and incubate at room temperature on a plate shaker for 1 hour at ~500 rpm. Empty the contents of the wells and wash by adding 400 μL of wash solution to every well. Repeat the wash 4 more times for a total of 5 washes. After the final wash, empty or aspirate the wells and firmly tap the plate on a lint free paper towel to remove any remaining wash buffer.
Pipet 100 μL of yellow Antibody into each well, except the Blank. Seal the plate and incubate at room temperature on a plate shaker for 1 hour at ~500 rpm. Empty the contents of the wells and wash by adding 400 μL of wash solution to every well. Repeat the wash 4 more times for a total of 5 washes. After the final wash, empty or aspirate the wells and firmly tap the plate on a lint free paper towel to remove any remaining wash buffer. Add 100 μL of blue Conjugate to each well, except the Blank. Seal the plate and incubate at room temperature on a plate shaker for 30 minutes […]
Pipet 100 μL of Substrate Solution into each well. Incubate for 30 minutes at room temperature on a plate shaker at ~500 rpm. Pipet 100 μL Stop Sol ution to each well. Blank the plate reader against the Blank wells, read the optical density at 450 nm. Calculate the average net Optical Density (OD) bound for each standard and sample by subtracting the average Blank OD from the average OD for each standard and sample. Using linear graph paper, plot the Average Net OD for each standard versus Bax concentration in each standard. Approximate a straight line through the points.
The concentration of Bax in the unknowns can be determined by interpolation. […]

## COc1cccc2c1C(=O)c1c(O)c3c(c(O)c1C2=O)C[C@@](O)(C(=O)CO)C[C@@H]3O[C@H]1C[C@H](N)[C@H](O)[C@H](C)O1 [Doxorubicin, reference compound]
caspase-3
  Caspase-3 Conc: 505 ± 4 pg/mL
caspase-3; listed as doxorubicin
  Caspase-3 Conc: 505 ± 4.0 pg/mL
caspase-3; vs untreated control
  Caspase-3 Fold Change: 7.5
caspase-8; control 0.10
  Caspase-8 Conc: 1.80 ng/mL
caspase-8; vs control
  Caspase-8 Fold Change: 18
Bcl-2; control 5
  Bcl-2 Conc: 0.90 ng/mL
Bcl-2; vs control
  Bcl-2 Fold Reduction: 6
Bax; control 9
  Bax Conc: 280 pg/mL
Bax; vs control
  Bax Fold Change: 31
